Test results published in ChEMBL document CHEMBL1201862, “PubChem BioAssay data set” (2004).
Each block holds one compound with its values, some of them ahead of it. Calls of active or inactive are those of the source. Rule as the data show it, for most assays here: actives have a measured IC50 and inactives only a lower limit.

How the values were obtained:
HEK293 [1] = experiment: cells; type: functional, cell-based; settings: Homo sapiens
Tumor necrosis factor = Tumor necrosis factor (Homo sapiens, UniProt P01375); experiment: TNFa-triggered NF-kB activation inhibitors, SAR follow-up, cell-based, revised (AID 2337); type: functional
[2] = biological target: T1, COUP transcription factor 2 (Homo sapiens, UniProt P24468); experiment: Luminescence-based cell-based high throughput dose response assay to identify inhibitors of COUP-TFII (NR2F2).; type: functional;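 also: HEK293 cells transiently cotransfected with COUP-TFII expression vector and reporter; luciferase reporter luminescence driven by COUP-TFII from the pX2-168 reporter plasmid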
T1 sequence (P24468 whole entry): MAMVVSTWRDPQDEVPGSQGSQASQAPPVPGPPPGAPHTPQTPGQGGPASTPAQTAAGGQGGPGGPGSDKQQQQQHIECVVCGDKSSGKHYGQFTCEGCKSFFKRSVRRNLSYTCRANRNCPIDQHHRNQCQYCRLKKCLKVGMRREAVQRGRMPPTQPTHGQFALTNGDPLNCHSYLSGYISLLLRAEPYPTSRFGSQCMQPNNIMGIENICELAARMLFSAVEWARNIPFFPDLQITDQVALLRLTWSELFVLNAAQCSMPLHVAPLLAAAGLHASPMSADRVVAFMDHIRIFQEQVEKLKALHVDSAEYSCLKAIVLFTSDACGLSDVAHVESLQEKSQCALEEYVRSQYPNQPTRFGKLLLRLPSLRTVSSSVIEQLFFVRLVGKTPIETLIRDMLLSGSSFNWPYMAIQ

HEK293 [3] = experiment: cells; settings: Homo sapiens
HEK293 [4] = experiment: NOD1 signaling inhibitors, primary screen, cell-based, luminescence, uHTS (AID 1578); type: functional; settings: Homo sapiens
[5] = biological target: Nucleotide-binding oligomerization domain-containing protein 1 (Homo sapiens, UniProt Q9Y239); experiment: NOD1 signaling inhibitors, SAR follow-up, revised (AID 2333); type: functional
HEK293 [6] = experiment: NOD2 signaling inhibitors in MDP-stimulated cells, cell-based, uHTS, luminescence (AID 2001); type: functional; settings: Homo sapiens
HEK293 [7] = experiment: cells; type: functional, cell-based; settings: Homo sapiens; remark: listed apart in the source
SUMO E1/E2 = SUMO E1/E2 (Homo sapiens, UniProt P63279+Q9UBE0+Q9UBT2); experiment: SAR analysis of SUMOylation using HTRF in an in-Vitro dose response assay. [Related pubchem assays (depositor defined):AID2006, AID2011, AID2018, AID2069, AID2658]; type: functional
[8] = biological target: G-protein coupled receptor 55 (Homo sapiens, UniProt Q9Y2T6); experiment: GPR55 antagonists, SAR follow-up, counter-screen for GPR35 antagonist project, imaging, image-based (AID 2397); type: functional
[9] = biological target: T2, Tyrosine-protein phosphatase non-receptor type 22 (Homo sapiens, UniProt Q9Y2R2); experiment: LYP (PTPN22) phosphatase inhibitor potency, SAR follow-up, biochemical, pCAP fluorogenic substrate, fluorescence, set 3 (AID 449727); type: functional
T2 sequence (Q9Y2R2 whole entry): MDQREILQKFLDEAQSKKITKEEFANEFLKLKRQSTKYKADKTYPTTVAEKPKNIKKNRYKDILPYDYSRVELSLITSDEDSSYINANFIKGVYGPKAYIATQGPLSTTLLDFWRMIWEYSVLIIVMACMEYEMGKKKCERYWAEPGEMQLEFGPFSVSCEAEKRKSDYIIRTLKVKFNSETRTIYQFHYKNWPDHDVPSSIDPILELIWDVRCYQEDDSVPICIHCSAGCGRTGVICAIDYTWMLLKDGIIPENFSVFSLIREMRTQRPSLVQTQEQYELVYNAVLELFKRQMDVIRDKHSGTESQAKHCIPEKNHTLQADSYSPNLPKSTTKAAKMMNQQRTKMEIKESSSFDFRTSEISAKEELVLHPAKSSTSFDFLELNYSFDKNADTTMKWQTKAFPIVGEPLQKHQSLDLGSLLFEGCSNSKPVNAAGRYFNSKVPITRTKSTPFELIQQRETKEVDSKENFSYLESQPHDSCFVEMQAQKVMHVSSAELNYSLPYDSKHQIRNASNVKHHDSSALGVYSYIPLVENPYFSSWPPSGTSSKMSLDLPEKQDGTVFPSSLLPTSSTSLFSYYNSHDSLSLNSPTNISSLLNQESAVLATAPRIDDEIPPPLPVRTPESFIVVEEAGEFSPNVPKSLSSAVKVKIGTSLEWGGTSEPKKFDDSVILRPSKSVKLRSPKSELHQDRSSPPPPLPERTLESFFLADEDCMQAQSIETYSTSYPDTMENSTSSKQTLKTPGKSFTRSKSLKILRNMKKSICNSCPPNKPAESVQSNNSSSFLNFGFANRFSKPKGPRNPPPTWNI

[10] = biological target: T3, Tyrosine-protein phosphatase non-receptor type 7 (Homo sapiens, UniProt P35236); experiment: HePTP (PTPN7) phosphatase inhibitor potency, SAR follow-up, biochemical, set 2 (AID 449736); type: functional
T3 sequence (P35236 whole entry): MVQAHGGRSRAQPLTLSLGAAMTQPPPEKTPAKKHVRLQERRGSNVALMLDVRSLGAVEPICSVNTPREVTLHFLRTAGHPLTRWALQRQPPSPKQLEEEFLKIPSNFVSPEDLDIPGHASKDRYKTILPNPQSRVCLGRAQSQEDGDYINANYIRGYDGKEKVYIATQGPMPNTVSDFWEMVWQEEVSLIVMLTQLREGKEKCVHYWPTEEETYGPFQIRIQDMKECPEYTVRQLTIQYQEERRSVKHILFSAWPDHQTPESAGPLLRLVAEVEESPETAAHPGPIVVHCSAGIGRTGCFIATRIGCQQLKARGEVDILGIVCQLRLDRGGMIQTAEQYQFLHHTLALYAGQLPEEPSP

[11] = biological target: T2, Tyrosine-protein phosphatase non-receptor type 22; experiment: SAR LYP1 Fluorescent Assay using OMFP substrate for In Vitro dose response studies - Set 3. [Related pubchem assays (depositor defined):AID1779, AID1784, AID2140, AID2686]; type: functional
[12] = biological target: T4, Tyrosine-protein phosphatase non-receptor type 12 (Homo sapiens, UniProt Q05209); experiment: SAR Selectivity Analysis of small molecule inhibitors of PEST using pCAP in a fluorescence assay. [Related pubchem assays (depositor defined):AID1779, AID1784, AID2135]; type: functional
T4 sequence (Q05209 whole entry): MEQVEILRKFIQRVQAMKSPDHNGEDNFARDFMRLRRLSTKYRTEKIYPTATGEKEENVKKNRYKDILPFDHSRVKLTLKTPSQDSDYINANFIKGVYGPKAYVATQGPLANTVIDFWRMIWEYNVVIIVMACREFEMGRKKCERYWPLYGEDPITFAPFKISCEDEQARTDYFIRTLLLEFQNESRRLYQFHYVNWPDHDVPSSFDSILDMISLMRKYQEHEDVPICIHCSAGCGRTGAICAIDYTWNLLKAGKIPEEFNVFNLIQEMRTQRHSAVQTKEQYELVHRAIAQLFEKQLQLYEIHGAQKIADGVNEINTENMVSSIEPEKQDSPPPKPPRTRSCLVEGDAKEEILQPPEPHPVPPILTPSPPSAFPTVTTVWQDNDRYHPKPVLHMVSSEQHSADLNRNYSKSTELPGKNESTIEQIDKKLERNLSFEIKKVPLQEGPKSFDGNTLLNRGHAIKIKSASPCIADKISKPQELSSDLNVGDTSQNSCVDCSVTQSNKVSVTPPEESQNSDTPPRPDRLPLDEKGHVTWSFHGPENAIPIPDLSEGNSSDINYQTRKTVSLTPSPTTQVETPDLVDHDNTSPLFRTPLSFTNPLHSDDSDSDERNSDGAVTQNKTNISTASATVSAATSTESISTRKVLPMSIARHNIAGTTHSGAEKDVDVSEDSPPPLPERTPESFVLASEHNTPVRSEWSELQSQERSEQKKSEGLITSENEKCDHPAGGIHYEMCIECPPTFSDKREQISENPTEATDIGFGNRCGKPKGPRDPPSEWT

[13] = biological target: G-protein coupled receptor 35 (Homo sapiens, UniProt Q9HC97); experiment: SAR Analysis for the identification of Selective Antagonists of ERK1/2 Activity in GPR35-Overexpressing U2OS Cells. [Related pubchem assays: 2079, 2058 ]; type: functional, cell-based
Chain of G-protein coupled receptor 35 (Q9HC97 whole entry): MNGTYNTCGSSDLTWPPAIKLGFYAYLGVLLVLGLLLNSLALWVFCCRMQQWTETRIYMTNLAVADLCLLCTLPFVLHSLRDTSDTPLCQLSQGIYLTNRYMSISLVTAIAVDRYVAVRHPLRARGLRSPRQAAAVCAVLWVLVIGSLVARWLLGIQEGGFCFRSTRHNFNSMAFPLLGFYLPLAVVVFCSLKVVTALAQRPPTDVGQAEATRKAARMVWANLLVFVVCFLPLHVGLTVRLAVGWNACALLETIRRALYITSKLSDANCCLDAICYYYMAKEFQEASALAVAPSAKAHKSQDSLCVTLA

Chain of Nucleotide-binding oligomerization domain-containing protein 1 (Q9Y239 whole entry, the tested form may be a part): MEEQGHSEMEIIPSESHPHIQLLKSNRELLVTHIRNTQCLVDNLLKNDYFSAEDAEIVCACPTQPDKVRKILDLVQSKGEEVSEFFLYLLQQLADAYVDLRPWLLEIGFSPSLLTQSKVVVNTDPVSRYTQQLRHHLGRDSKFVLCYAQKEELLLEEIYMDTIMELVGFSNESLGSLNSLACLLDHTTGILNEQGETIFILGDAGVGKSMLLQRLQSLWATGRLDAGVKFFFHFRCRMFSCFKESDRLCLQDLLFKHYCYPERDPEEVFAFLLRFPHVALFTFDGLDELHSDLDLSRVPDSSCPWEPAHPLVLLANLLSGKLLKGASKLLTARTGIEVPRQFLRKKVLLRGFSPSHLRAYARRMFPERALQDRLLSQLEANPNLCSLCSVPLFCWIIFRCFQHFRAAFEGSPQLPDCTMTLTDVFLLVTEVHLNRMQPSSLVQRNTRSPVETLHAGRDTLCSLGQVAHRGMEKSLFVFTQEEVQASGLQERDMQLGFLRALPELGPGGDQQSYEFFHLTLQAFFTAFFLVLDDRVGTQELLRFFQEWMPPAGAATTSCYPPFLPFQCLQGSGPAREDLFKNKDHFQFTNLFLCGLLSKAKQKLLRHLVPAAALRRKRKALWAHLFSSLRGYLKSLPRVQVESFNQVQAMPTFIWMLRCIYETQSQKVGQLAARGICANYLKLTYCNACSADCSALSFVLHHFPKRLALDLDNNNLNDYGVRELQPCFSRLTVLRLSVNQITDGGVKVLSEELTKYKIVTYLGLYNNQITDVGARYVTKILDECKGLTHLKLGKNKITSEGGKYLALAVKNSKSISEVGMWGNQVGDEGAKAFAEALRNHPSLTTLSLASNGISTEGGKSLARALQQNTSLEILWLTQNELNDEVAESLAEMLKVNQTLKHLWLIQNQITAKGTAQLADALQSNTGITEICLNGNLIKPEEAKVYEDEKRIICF
Chain of Tumor necrosis factor (P01375 whole entry): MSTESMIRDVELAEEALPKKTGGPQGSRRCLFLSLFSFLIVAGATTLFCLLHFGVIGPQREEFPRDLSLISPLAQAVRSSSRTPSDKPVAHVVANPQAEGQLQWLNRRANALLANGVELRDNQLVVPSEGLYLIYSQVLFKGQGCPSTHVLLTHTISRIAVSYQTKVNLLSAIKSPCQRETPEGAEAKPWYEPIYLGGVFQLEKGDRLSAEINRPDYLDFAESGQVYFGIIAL
Chain of SUMO E1/E2 (Q9UBE0 whole entry): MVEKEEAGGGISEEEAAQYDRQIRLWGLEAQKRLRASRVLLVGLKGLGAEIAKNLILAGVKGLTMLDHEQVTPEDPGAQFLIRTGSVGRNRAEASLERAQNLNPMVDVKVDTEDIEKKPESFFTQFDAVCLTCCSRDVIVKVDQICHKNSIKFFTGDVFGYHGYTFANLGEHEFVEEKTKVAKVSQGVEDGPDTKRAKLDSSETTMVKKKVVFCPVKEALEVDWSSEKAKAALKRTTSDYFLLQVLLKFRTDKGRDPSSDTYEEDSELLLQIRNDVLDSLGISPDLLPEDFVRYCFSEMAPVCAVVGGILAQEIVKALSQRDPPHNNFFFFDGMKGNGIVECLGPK
Chain of SUMO E1/E2 (Q9UBT2 whole entry): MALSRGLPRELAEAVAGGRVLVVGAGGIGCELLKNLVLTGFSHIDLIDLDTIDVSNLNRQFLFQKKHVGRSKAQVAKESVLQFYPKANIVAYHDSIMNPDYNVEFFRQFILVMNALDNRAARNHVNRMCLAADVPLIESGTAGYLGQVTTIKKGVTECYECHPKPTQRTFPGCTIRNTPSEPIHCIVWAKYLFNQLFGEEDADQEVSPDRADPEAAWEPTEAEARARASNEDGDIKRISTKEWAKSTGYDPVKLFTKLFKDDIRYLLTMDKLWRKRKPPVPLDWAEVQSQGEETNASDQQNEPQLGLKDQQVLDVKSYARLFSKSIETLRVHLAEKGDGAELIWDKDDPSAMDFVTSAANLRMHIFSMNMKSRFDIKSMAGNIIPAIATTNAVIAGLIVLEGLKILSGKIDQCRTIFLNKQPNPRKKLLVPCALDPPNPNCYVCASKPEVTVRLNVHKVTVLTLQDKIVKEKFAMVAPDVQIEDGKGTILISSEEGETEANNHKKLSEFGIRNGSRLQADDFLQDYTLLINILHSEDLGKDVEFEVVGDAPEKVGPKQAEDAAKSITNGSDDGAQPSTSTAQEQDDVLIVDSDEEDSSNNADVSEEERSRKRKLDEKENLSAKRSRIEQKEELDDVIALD
Chain of SUMO E1/E2 (P63279 whole entry): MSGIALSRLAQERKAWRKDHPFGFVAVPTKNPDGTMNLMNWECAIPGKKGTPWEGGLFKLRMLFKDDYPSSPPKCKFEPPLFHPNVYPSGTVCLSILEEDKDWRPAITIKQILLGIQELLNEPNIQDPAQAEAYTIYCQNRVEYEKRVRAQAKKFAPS
Chain of G-protein coupled receptor 55 (Q9Y2T6 whole entry): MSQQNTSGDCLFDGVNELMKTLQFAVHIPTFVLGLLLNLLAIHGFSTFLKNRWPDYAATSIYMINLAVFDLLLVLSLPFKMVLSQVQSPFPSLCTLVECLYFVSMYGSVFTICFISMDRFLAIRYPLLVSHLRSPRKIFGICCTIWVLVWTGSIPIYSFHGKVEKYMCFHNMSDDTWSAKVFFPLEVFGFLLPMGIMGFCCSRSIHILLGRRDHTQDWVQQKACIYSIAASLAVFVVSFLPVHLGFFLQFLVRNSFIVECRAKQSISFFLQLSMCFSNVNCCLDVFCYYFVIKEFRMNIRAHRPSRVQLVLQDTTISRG

Compound: CSc1ccccc1OCc1cc(C(=O)N2CCC(c3ccncc3)CC2)no1
IC50 (HEK293 [1]): 8.95 µM (active) | IC50 (Tumor necrosis factor): 3.22 µM (active) | IC50 [2]: 10.3 µM (inactive) | IC50 (HEK293 [3]): > 20 µM (inactive) | EC50 (HEK293 [4]): 2.09 µM (active) | IC50 [5]: 3.18 µM (active) | IC50 (HEK293 [6]): 5.04 µM (active) | IC50 (HEK293 [7]): 3.97 µM (active)

IC50 (SUMO E1/E2): > 100 µM (inactive)
Compound: Cc1ccc(N=Cc2sccc2C)cc1C

IC50 [8]: > 32 µM (inactive) | IC50 [9]: 58.5 µM (active) | IC50 [10]: 9.74 µM (active) | IC50 [11]: > 100 µM (inactive) | IC50 [12]: 17.9 µM (active) | IC50 [13]: 0.522 µM (active)
Compound: COc1ccc(/C=C2\SC(=S)N(CCCC(=O)Nc3ccc(C(=O)O)c(O)c3)C2=O)cc1OC
